ChEMBL document CHEMBL5465560, “Selectivity Literature for EUbOPEN Chemogenomic Library” (2024)

What was measured:
[1] = target: NUAK family SNF1-like kinase 1 (Homo sapiens, UniProt O60285); test: Selectivity interaction (Enzymatic assay) EUB0001199aCl NUAK1
[2] = target: T1, Mitogen-activated protein kinase kinase kinase kinase 2 (Homo sapiens) (UniProt Q12851); test: Selectivity interaction (ActivX KiNativ screen (kinase selectivity in THP-1 cell lysates)) EUB0000639a MAP4K2; type: subcellular; conditions: lysate, at 5 µM
T1 sequence (whole entry): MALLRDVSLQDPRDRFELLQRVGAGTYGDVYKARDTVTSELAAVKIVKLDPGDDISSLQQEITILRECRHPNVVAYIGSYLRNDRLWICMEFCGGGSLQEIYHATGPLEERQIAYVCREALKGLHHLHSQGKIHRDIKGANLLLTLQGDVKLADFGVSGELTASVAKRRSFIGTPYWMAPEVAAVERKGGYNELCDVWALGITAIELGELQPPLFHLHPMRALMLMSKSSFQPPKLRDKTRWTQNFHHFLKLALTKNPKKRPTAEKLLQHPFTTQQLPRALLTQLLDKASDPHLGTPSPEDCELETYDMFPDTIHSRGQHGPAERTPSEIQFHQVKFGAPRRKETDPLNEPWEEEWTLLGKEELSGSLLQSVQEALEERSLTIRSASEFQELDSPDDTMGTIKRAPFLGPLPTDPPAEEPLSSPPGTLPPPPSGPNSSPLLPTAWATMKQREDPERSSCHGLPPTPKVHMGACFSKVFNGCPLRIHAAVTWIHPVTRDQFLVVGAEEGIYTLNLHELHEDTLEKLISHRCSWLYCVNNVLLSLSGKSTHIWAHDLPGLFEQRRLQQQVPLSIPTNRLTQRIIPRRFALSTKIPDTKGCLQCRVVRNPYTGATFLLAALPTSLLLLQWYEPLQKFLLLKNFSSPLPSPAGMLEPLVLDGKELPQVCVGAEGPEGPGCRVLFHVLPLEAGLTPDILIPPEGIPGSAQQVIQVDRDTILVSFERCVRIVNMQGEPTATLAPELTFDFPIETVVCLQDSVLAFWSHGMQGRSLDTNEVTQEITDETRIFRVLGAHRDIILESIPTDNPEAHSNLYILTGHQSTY

[3] = target: Tyrosine-protein kinase CSK (Homo sapiens) (UniProt P41240); test: Selectivity interaction (ProQinase) EUB0000171b CSK
[4] = target: Receptor-interacting serine/threonine-protein kinase 2 (Homo sapiens, UniProt O43353); test: Selectivity interaction (KinomeScan (DiscoverX)) EUB0000695a RIPK2; conditions: at 100 nM
[5] = target: T2, Serine/threonine-protein kinase Sgk3 (Homo sapiens) (UniProt Q96BR1); test: Selectivity interaction (KinomeScan (DiscoverX)) EUB0001049a SGK3; conditions: at 1 µM
T2 sequence (whole entry): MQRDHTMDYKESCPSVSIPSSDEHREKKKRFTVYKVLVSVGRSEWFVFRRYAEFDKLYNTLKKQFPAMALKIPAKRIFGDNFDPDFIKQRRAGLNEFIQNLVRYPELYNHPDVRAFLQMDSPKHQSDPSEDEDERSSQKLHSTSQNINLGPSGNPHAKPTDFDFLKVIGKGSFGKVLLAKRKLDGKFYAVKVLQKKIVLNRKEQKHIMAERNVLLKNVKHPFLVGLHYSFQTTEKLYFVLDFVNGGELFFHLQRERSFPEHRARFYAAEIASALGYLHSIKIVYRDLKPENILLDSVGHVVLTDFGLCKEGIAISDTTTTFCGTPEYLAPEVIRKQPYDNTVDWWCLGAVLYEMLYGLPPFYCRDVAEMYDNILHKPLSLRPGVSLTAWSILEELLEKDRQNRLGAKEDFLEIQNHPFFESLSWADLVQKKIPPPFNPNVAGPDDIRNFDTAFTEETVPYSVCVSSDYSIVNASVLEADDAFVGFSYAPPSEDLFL

[6] = target: T3, Dual specificity mitogen-activated protein kinase kinase 7 (Homo sapiens) (UniProt O14733); test: Selectivity interaction (KinomeScan (DiscoverX)) EUB0000045b MAP2K7
T3 sequence (whole entry): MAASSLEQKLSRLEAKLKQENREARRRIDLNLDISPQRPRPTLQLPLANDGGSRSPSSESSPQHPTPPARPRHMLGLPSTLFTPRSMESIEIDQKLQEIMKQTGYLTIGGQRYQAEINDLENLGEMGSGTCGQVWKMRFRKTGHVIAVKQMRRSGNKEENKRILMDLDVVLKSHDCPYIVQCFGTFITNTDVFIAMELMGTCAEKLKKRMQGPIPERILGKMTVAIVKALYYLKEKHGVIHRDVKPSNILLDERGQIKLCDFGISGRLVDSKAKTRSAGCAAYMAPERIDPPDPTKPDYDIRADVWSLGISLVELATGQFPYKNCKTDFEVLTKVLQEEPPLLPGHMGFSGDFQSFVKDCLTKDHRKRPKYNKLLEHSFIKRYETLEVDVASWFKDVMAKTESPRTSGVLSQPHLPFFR

[7] = target: Casein kinase I isoform gamma-1 (Homo sapiens) (UniProt Q9HCP0); test: Selectivity interaction (KinomeScan (DiscoverX)) EUB0000045b CSNK1G1
[8] = target: 5'-AMP-activated protein kinase catalytic subunit alpha-1 (Homo sapiens, UniProt Q13131); test: Selectivity interaction (ActivX KiNativ screen (ex vivo kinase selectivity in human PBMCs)) EUB0001619a PRKAA1; type: cell-based; conditions: PBMC, at 1 µM
Sequence of 5'-AMP-activated protein kinase catalytic subunit alpha-1 (Q13131 whole entry, looked up): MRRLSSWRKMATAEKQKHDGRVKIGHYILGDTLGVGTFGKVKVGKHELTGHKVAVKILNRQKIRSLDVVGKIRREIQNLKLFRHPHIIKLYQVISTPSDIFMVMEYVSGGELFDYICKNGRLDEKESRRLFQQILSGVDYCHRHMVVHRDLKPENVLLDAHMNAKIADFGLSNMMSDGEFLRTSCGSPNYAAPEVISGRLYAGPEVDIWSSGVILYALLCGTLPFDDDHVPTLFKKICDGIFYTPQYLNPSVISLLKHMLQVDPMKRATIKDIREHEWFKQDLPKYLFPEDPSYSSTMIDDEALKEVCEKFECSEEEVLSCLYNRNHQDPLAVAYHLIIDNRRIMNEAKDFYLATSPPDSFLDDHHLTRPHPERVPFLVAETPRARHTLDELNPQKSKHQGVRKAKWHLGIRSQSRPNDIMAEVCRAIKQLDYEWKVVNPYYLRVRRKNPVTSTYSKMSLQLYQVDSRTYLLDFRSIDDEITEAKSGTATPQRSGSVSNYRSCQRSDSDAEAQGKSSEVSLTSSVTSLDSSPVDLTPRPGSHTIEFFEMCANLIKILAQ

Sequence of Casein kinase I isoform gamma-1 (Homo sapiens) (Q9HCP0 whole entry, looked up, canonical isoform): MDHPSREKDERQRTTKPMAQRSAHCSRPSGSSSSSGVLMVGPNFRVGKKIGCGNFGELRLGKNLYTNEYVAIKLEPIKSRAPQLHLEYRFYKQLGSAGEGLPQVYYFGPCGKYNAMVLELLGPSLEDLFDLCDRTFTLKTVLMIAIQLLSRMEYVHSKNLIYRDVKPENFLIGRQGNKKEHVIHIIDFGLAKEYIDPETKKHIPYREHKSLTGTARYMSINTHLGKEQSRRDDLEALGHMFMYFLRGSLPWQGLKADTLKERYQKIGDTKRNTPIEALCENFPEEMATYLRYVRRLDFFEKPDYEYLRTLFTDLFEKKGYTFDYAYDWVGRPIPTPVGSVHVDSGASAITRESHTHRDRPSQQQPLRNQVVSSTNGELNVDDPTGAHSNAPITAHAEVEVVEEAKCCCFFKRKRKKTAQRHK
Sequence of Tyrosine-protein kinase CSK (Homo sapiens) (P41240 2-450 limits assumed): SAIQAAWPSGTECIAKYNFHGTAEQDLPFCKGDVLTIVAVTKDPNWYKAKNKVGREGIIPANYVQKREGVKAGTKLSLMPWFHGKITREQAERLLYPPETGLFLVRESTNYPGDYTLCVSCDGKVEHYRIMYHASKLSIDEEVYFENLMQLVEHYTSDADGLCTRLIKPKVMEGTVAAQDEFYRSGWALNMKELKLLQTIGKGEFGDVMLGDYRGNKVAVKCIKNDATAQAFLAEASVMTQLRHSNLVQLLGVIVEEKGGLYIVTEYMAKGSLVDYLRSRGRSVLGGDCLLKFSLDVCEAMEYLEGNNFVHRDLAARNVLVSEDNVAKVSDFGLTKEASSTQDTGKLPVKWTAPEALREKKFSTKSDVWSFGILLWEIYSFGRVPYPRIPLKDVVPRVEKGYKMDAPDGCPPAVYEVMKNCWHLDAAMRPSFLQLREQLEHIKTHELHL
Sequence of NUAK family SNF1-like kinase 1 (O60285 whole entry): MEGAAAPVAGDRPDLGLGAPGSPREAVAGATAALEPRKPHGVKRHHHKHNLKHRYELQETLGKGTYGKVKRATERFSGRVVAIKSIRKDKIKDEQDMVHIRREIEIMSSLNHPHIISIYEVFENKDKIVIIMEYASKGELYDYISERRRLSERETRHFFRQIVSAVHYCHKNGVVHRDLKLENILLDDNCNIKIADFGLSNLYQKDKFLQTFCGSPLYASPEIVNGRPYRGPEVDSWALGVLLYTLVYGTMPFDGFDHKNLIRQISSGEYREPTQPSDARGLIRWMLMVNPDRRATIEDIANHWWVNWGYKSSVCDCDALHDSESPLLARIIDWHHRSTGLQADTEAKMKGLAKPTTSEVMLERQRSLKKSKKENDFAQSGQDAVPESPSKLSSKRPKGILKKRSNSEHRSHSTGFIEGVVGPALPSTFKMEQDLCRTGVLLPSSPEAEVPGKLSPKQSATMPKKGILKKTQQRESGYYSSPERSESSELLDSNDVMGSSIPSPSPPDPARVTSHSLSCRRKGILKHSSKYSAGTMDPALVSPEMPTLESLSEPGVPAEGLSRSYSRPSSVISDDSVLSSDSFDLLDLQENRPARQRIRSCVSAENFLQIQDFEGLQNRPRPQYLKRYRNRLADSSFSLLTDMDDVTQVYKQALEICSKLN
Sequence of Receptor-interacting serine/threonine-protein kinase 2 (O43353 whole entry): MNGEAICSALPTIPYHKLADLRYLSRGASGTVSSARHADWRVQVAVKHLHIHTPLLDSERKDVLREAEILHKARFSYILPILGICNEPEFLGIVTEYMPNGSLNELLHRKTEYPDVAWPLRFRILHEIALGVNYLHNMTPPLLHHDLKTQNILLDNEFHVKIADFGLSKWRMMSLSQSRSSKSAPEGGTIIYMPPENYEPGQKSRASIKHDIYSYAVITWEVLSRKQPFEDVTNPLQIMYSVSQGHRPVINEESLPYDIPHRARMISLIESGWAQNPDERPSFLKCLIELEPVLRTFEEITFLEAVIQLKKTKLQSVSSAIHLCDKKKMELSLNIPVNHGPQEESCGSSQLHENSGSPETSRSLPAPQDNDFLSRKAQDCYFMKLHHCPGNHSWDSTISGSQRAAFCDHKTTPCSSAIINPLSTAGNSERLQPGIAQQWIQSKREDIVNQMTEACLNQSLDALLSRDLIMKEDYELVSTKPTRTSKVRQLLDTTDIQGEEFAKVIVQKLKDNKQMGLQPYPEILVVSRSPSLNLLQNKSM

`CN1Cc2nccc(-c3cn(C)nc3-c3ccc(F)cc3)c2C1=O` gave an IC50 [1] of 10.2 µM.

`CC[C@@H]1[C@H](F)C(=O)N[C@@H]1COc1nccc2cc(C(N)=O)c(OC)cc12` [ZIMLOVISERTIB] showed a % of inhibition [2] of -1.3%.

`C=CC(=O)Nc1cccc(C(=O)Nc2ccc(Nc3cc(-c4[nH]c(SC)nc4C)ccn3)cc2)c1` gave a % of control ([3]; at 1 µM) of 87% and a % of control ([3]; at 5 µM) of 81%.

`Cc1cc(F)c(C(=O)Nc2cccc(-c3nncn3C(C)C)n2)cc1-n1cnc(C2CC2)c1` showed a % of control [4] of 100%.

`COc1cc(Nc2nc(C)cc(-c3cnn4nc(OC)ccc34)n2)cc(C(F)(F)F)c1` showed a % of control [5] of 74%.

For `C=CC(=O)Nc1cc(-n2c(=O)ccc3cnc4ccc(-c5ccc(NS(C)(=O)=O)cc5)cc4c32)ccc1C`, the % of control ([6]; at 1 µM) was 49%, the % of control ([6]; at 10 µM) was 6.1% and the % of control ([7]; at 1 µM) was 100%. The % of control ([7]; at 10 µM) was 75%.

In the case of `N#Cc1cccc(-c2c[nH]c3ncnc(N4CCOCC4)c23)c1`, the % of inhibition [8] is reported as 16%.
